Source: ChEMBL document CHEMBL3396983, “Synthesis of erythrocentaurin derivatives as a new class of hepatitis B virus inhibitors” (Bioorg Med Chem Lett, 2015)

Test system: not listed separately
Test: Cytotoxicity against human HepG2(2.2.15) cells after 72 hrs by MTT assay
Assay type: cell-based
Conditions: not given

Row | Structure (SMILES) | CC50 at 72 h [mM]
1 | O=C(OCc1cccc2c1CCOC2=O)c1cc2ccccc2o1 | 0.83
2 | O=Cc1cccc2c1CCOC2=O | 1.76
3 | O=C1OCCc2c(CO)cccc21 | > 3.8
4 | O=C(O)c1cccc2c1CCOC2=O | > 4.54
5 | NC(=O)c1cccc2c1CCOC2=O | > 3.29
6 | N=C(N)c1cccc2c1CCOC2=O | 2.05
7 | O=C1OCCc2c(/C=N\O)cccc21 | > 4
8 | O=C1OCCc2c1cccc2C1OCCO1 | > 2.58
9 | O=C1/C(=C/c2cccc3c2CCOC3=O)Oc2cc(O)ccc21 | > 1.81
10 | O=C1OCCc2c(/C=C\c3ccccc3)cccc21 | > 2.16
11 | O=C1OCCc2c(/C=C/c3ccccc3)cccc21 | > 2.43
12 | O=C1OCCc2c(/C=N/Nc3ccc([N+](=O)[O-])cc3[N+](=O)[O-])cccc21 | > 1.65
13 | CC(=O)OCc1cccc2c1CCOC2=O | > 2.43
14 | CCCCCCCC(=O)OCc1cccc2c1CCOC2=O | > 3.45
15 | CCC(CC)C(=O)OCc1cccc2c1CCOC2=O | 1.89
16 | CCOCC(=O)OCc1cccc2c1CCOC2=O | > 3.68
17 | O=C1OCCc2c(COC(=O)C3CCCCC3)cccc21 | > 1.84
18 | O=C(OCc1cccc2c1CCOC2=O)c1cccc([N+](=O)[O-])c1 | > 2.72
19 | O=C(OCc1cccc2c1CCOC2=O)c1ccc([N+](=O)[O-])cc1 | > 2.26
20 | O=C(O)c1ccccc1C(=O)OCc1cccc2c1CCOC2=O | 0.13
21 | O=C(OCc1cccc2c1CCOC2=O)c1ccco1 | > 2.35
22 | O=C(OCc1cccc2c1CCOC2=O)c1cccnc1 | > 2.7
23 | COc1cccc(/C=C/C(=O)OCc2cccc3c2CCOC3=O)c1 | > 1.62
24 | O=C(OCc1cccc2c1CCOC2=O)c1cc2ccccc2[nH]1 | > 2.05
25 | O=C(OCc1cccc2c1CCOC2=O)c1cc(=O)c2ccccc2o1 | 2.57
26 | C[C@H](Cn1cnc2c(N)ncnc21)OCP(=O)(O)O [TENOFOVIR ANHYDROUS] | 1.85

Test system: Hepatitis B virus
Test: Inhibition of HBV HBsAg secretion in HepG2(2.2.15) cells after 72 hrs by ELISA method
Assay type: functional, organism-based
Conditions: HepG2 2.2.15, 72 h

Row | IC50 [mM] | Structure (SMILES)
27 | 1.63 | O=C(OCc1cccc2c1CCOC2=O)c1cc2ccccc2o1
28 | 1.3 | O=Cc1cccc2c1CCOC2=O
29 | 2.7 | O=C1OCCc2c(CO)cccc21
30 | 3.18 | O=C(O)c1cccc2c1CCOC2=O
31 | > 3.29 | NC(=O)c1cccc2c1CCOC2=O
32 | 2.24 | N=C(N)c1cccc2c1CCOC2=O
33 | > 4 | O=C1OCCc2c(/C=N\O)cccc21
34 | > 2.58 | O=C1OCCc2c1cccc2C1OCCO1
35 | > 1.81 | O=C1/C(=C/c2cccc3c2CCOC3=O)Oc2cc(O)ccc21
36 | > 2.16 | O=C1OCCc2c(/C=C\c3ccccc3)cccc21
37 | > 2.43 | O=C1OCCc2c(/C=C/c3ccccc3)cccc21
38 | > 1.65 | O=C1OCCc2c(/C=N/Nc3ccc([N+](=O)[O-])cc3[N+](=O)[O-])cccc21
39 | 1.31 | CC(=O)OCc1cccc2c1CCOC2=O
40 | > 3.45 | CCCCCCCC(=O)OCc1cccc2c1CCOC2=O
41 | > 2.59 | CCC(CC)C(=O)OCc1cccc2c1CCOC2=O
42 | > 3.68 | CCOCC(=O)OCc1cccc2c1CCOC2=O
43 | > 1.84 | O=C1OCCc2c(COC(=O)C3CCCCC3)cccc21
44 | > 2.72 | O=C(OCc1cccc2c1CCOC2=O)c1cccc([N+](=O)[O-])c1
45 | > 2.26 | O=C(OCc1cccc2c1CCOC2=O)c1ccc([N+](=O)[O-])cc1
46 | 0.072 | O=C(O)c1ccccc1C(=O)OCc1cccc2c1CCOC2=O
47 | > 2.35 | O=C(OCc1cccc2c1CCOC2=O)c1ccco1
48 | > 2.7 | O=C(OCc1cccc2c1CCOC2=O)c1cccnc1
49 | > 1.62 | COc1cccc(/C=C/C(=O)OCc2cccc3c2CCOC3=O)c1
50 | > 2.05 | O=C(OCc1cccc2c1CCOC2=O)c1cc2ccccc2[nH]1
51 | 2.3 | O=C(OCc1cccc2c1CCOC2=O)c1cc(=O)c2ccccc2o1
52 | 2.32 | C[C@H](Cn1cnc2c(N)ncnc21)OCP(=O)(O)O [TENOFOVIR ANHYDROUS]

Test system: not listed separately
Test: Selectivity index, ratio of CC50 for human HepG2(2.2.15) cells to IC50 for inhibition of HBV HBsAg secretion in HepG2(2.2.15) cells
Assay type: functional
Conditions: not given

Row | Structure (SMILES) | Ratio CC50/IC50
53 | O=C(OCc1cccc2c1CCOC2=O)c1cc2ccccc2o1 | <1
54 | O=Cc1cccc2c1CCOC2=O | 1.4
55 | O=C1OCCc2c(CO)cccc21 | >1.4
56 | O=C(O)c1cccc2c1CCOC2=O | >1.4
57 | CC(=O)OCc1cccc2c1CCOC2=O | >1.8
58 | O=C(O)c1ccccc1C(=O)OCc1cccc2c1CCOC2=O | 1.8
59 | O=C(OCc1cccc2c1CCOC2=O)c1cc(=O)c2ccccc2o1 | 1.1

Test system: Hepatitis B virus
Test: Inhibition of HBV HBeAg secretion in HepG2(2.2.15) cells after 72 hrs by ELISA method
Assay type: functional, organism-based
Conditions: HepG2 2.2.15, 72 h

Row | IC50 [mM] | Structure (SMILES)
60 | > 2.67 | O=C(OCc1cccc2c1CCOC2=O)c1cc2ccccc2o1
61 | 1.14 | O=Cc1cccc2c1CCOC2=O
62 | 1.46 | O=C1OCCc2c(CO)cccc21
63 | 2.95 | O=C(O)c1cccc2c1CCOC2=O
64 | > 3.29 | NC(=O)c1cccc2c1CCOC2=O
65 | 2.84 | N=C(N)c1cccc2c1CCOC2=O
66 | 2.33 | O=C1OCCc2c(/C=N\O)cccc21
67 | 2.18 | O=C1OCCc2c1cccc2C1OCCO1
68 | > 1.81 | O=C1/C(=C/c2cccc3c2CCOC3=O)Oc2cc(O)ccc21
69 | > 2.16 | O=C1OCCc2c(/C=C\c3ccccc3)cccc21
70 | > 2.43 | O=C1OCCc2c(/C=C/c3ccccc3)cccc21
71 | 1.34 | O=C1OCCc2c(/C=N/Nc3ccc([N+](=O)[O-])cc3[N+](=O)[O-])cccc21
72 | > 2.43 | CC(=O)OCc1cccc2c1CCOC2=O
73 | > 3.45 | CCCCCCCC(=O)OCc1cccc2c1CCOC2=O
74 | > 2.59 | CCC(CC)C(=O)OCc1cccc2c1CCOC2=O
75 | > 3.68 | CCOCC(=O)OCc1cccc2c1CCOC2=O
76 | > 1.84 | O=C1OCCc2c(COC(=O)C3CCCCC3)cccc21
77 | > 2.72 | O=C(OCc1cccc2c1CCOC2=O)c1cccc([N+](=O)[O-])c1
78 | > 2.26 | O=C(OCc1cccc2c1CCOC2=O)c1ccc([N+](=O)[O-])cc1
79 | 0.056 | O=C(O)c1ccccc1C(=O)OCc1cccc2c1CCOC2=O
80 | > 2.35 | O=C(OCc1cccc2c1CCOC2=O)c1ccco1
81 | > 2.7 | O=C(OCc1cccc2c1CCOC2=O)c1cccnc1
82 | 0.84 | COc1cccc(/C=C/C(=O)OCc2cccc3c2CCOC3=O)c1
83 | > 2.05 | O=C(OCc1cccc2c1CCOC2=O)c1cc2ccccc2[nH]1
84 | 1.81 | O=C(OCc1cccc2c1CCOC2=O)c1cc(=O)c2ccccc2o1
85 | 1.94 | C[C@H](Cn1cnc2c(N)ncnc21)OCP(=O)(O)O [TENOFOVIR ANHYDROUS]

Test system: not listed separately
Test: Selectivity index, ratio of CC50 for human HepG2(2.2.15) cells to IC50 for inhibition of HBV HBeAg secretion in HepG2(2.2.15) cells
Assay type: functional
Conditions: not given

Row | Structure (SMILES) | Ratio CC50/IC50
86 | O=Cc1cccc2c1CCOC2=O | 1.5
87 | O=C1OCCc2c(CO)cccc21 | >2.6
88 | O=C(O)c1cccc2c1CCOC2=O | >1.5
89 | O=C1OCCc2c(/C=N\O)cccc21 | >1.7
90 | O=C1OCCc2c1cccc2C1OCCO1 | >1.2
91 | O=C1OCCc2c(/C=N/Nc3ccc([N+](=O)[O-])cc3[N+](=O)[O-])cccc21 | >1.2
92 | O=C(O)c1ccccc1C(=O)OCc1cccc2c1CCOC2=O | 2.3
93 | COc1cccc(/C=C/C(=O)OCc2cccc3c2CCOC3=O)c1 | >1.9
94 | O=C(OCc1cccc2c1CCOC2=O)c1cc(=O)c2ccccc2o1 | 1.4

Test system: Hepatitis B virus
Test: Inhibition of HBV DNA replication in HepG2(2.2.15) cells exposed to fresh medium supplemented with compound every other day for additional 5 days by real-time PCR-fluorescent probing method
Assay type: functional, organism-based
Conditions: HepG2 2.2.15, 120 h

Row | IC50 [mM] | Structure (SMILES)
95 | 0.54 | O=C(OCc1cccc2c1CCOC2=O)c1cc2ccccc2o1
96 | 0.76 | O=Cc1cccc2c1CCOC2=O
97 | 0.17 | O=C1OCCc2c(CO)cccc21
98 | 0.39 | O=C(O)c1cccc2c1CCOC2=O
99 | 0.82 | NC(=O)c1cccc2c1CCOC2=O
100 | 0.38 | N=C(N)c1cccc2c1CCOC2=O
101 | 0.36 | O=C1OCCc2c(/C=N\O)cccc21
102 | 0.57 | O=C1OCCc2c1cccc2C1OCCO1
103 | > 0.45 | O=C1/C(=C/c2cccc3c2CCOC3=O)Oc2cc(O)ccc21
104 | 0.08 | O=C1OCCc2c(/C=C\c3ccccc3)cccc21
105 | 0.11 | O=C1OCCc2c(/C=C/c3ccccc3)cccc21
106 | > 0.41 | O=C1OCCc2c(/C=N/Nc3ccc([N+](=O)[O-])cc3[N+](=O)[O-])cccc21
107 | > 0.86 | CC(=O)OCc1cccc2c1CCOC2=O
108 | > 0.86 | CCCCCCCC(=O)OCc1cccc2c1CCOC2=O
109 | > 0.65 | CCC(CC)C(=O)OCc1cccc2c1CCOC2=O
110 | > 0.92 | CCOCC(=O)OCc1cccc2c1CCOC2=O
111 | 0.026 | O=C1OCCc2c(COC(=O)C3CCCCC3)cccc21
112 | > 0.68 | O=C(OCc1cccc2c1CCOC2=O)c1cccc([N+](=O)[O-])c1
113 | > 0.56 | O=C(OCc1cccc2c1CCOC2=O)c1ccc([N+](=O)[O-])cc1
114 | 0.084 | O=C(O)c1ccccc1C(=O)OCc1cccc2c1CCOC2=O
115 | > 0.84 | O=C(OCc1cccc2c1CCOC2=O)c1ccco1
116 | > 0.68 | O=C(OCc1cccc2c1CCOC2=O)c1cccnc1
117 | 0.045 | COc1cccc(/C=C/C(=O)OCc2cccc3c2CCOC3=O)c1
118 | 0.077 | O=C(OCc1cccc2c1CCOC2=O)c1cc2ccccc2[nH]1
119 | 0.52 | O=C(OCc1cccc2c1CCOC2=O)c1cc(=O)c2ccccc2o1
120 | 0.0005 | C[C@H](Cn1cnc2c(N)ncnc21)OCP(=O)(O)O [TENOFOVIR ANHYDROUS]

Test system: not listed separately
Test: Selectivity index, ratio of CC50 for human HepG2(2.2.15) cells to IC50 for inhibition of HBV DNA replication in HepG2(2.2.15) cells
Assay type: functional
Conditions: not given

Row | Structure (SMILES) | Ratio CC50/IC50
121 | O=C(OCc1cccc2c1CCOC2=O)c1cc2ccccc2o1 | 1.5
122 | O=Cc1cccc2c1CCOC2=O | 2.3
123 | O=C1OCCc2c(CO)cccc21 | >22.4
124 | O=C(O)c1cccc2c1CCOC2=O | >11.6
125 | NC(=O)c1cccc2c1CCOC2=O | >4
126 | N=C(N)c1cccc2c1CCOC2=O | 5.4
127 | O=C1OCCc2c(/C=N\O)cccc21 | >11.1
128 | O=C1OCCc2c1cccc2C1OCCO1 | >4.5
129 | O=C1OCCc2c(/C=C\c3ccccc3)cccc21 | >27
130 | O=C1OCCc2c(/C=C/c3ccccc3)cccc21 | >22.1
131 | O=C1OCCc2c(COC(=O)C3CCCCC3)cccc21 | >70.8
132 | O=C(O)c1ccccc1C(=O)OCc1cccc2c1CCOC2=O | 1.6
133 | COc1cccc(/C=C/C(=O)OCc2cccc3c2CCOC3=O)c1 | >36
134 | O=C(OCc1cccc2c1CCOC2=O)c1cc2ccccc2[nH]1 | >26.6
135 | O=C(OCc1cccc2c1CCOC2=O)c1cc(=O)c2ccccc2o1 | 4.9
136 | C[C@H](Cn1cnc2c(N)ncnc21)OCP(=O)(O)O [TENOFOVIR ANHYDROUS] | >3571.3
